PubChem BioAssay AID1259407 (Chemical Carcinogenesis Research Information System (CCRIS), 2018)
Calls of active or inactive are those of the source. No rule for the calls is given here.

System: CCRIS mutagenicity, Ames/micronucleus/aberration tests
Experiment: CCRIS mutagenicity studies
[1] = Test System: AMES SALMONELLA TYPHIMURIUM, Strain/Indicator: TA98, Metabolic Activation: NONE, Method: STANDARD PLATE
[2] = Test System: AMES SALMONELLA TYPHIMURIUM, Strain/Indicator: TA100, Metabolic Activation: NONE, Method: STANDARD PLATE
[3] = Test System: AMES SALMONELLA TYPHIMURIUM, Strain/Indicator: TA98, Metabolic Activation: NONE, Method: PREINCUBATION
[4] = Test System: AMES SALMONELLA TYPHIMURIUM, Strain/Indicator: TA100, Metabolic Activation: NONE, Method: PREINCUBATION

Q: Which mutagenic call (End Point: In vitro chromosomal aberrations, Test System: Human (male and female) lymphocytes, Metabolic Activation: None) does the source give for `CC1(c2ccc(Oc3ccccc3)cc2)OC(=O)N(Nc2ccccc2)C1=O` (stereo unspecified) here?
A: inactive; negative

Q: What about the mutagenic call (End Point: In vitro chromosomal aberrations, Test System: Human (male and female) lymphocytes, Metabolic Activation: S-9) of the same compound?
A: inactive; negative

Q: What about the mutagenic call (End Point: In vivo micronucleus, Test System: Bone marrow polychromatic erythrocytes, Species: Mouse, Strain/Sex: Crl:CD-1(ICR)BR/Male and female) of the same compound?
A: inactive; negative

Q: What about the mutagenic call (End Point: UDS, Species: Rat, Strain/Sex: Sprague-Dawley Crl:CD BR/Male, Route: Oral) of the same compound?
A: inactive; negative

Q: What about the mutagenic call (Test System: Ames Salmonella typhimurium, Strain/Indicator: TA97, Metabolic Activation: None, Method: Plate incorporation) of the same compound?
A: inactive; negative

Q: And the mutagenic call (Test System: Ames Salmonella typhimurium, Strain/Indicator: TA97, Metabolic Activation: Rat, Liver, S-9, Method: Plate incorporation)?
A: inactive; negative

Q: And the mutagenic call (Test System: Ames Salmonella typhimurium, Strain/Indicator: TA98, Metabolic Activation: None, Method: Plate incorporation)?
A: inactive; negative

Q: And the mutagenic call (Test System: Ames Salmonella typhimurium, Strain/Indicator: TA98, Metabolic Activation: Rat, Liver, S-9, Method: Plate incorporation)?
A: inactive; negative

Q: And the mutagenic call (Test System: Ames Salmonella typhimurium, Strain/Indicator: TA100, Metabolic Activation: None, Method: Plate incorporation)?
A: inactive; negative

Q: What about the mutagenic call (Test System: Ames Salmonella typhimurium, Strain/Indicator: TA100, Metabolic Activation: Rat, Liver, S-9, Method: Plate incorporation) of the same compound?
A: inactive; negative

Q: What about the mutagenic call (Test System: Ames Salmonella typhimurium, Strain/Indicator: TA1535, Metabolic Activation: None, Method: Plate incorporation) of the same compound?
A: inactive; negative

Q: And the mutagenic call (Test System: Ames Salmonella typhimurium, Strain/Indicator: TA1535, Metabolic Activation: Rat, Liver, S-9, Method: Plate incorporation)?
A: inactive; negative

Q: And the mutagenic call (Test System: Chinese hamster ovary cells, Strain/Indicator: CHO-K1-BH4 (HGPRT), Metabolic Activation: None, Method: Suspension/plate?)?
A: inactive; negative

Q: What about the mutagenic call (Test System: Chinese hamster ovary cells, Strain/Indicator: CHO-K1-BH4 (HGPRT), Metabolic Activation: Rat, Liver, S-9, Method: Suspension/plate?) of the same compound?
A: inactive; negative

Q: What about the mutagenic call (Test System: E. coli, Strain/Indicator: WP2 uvrA (pKM101), Metabolic Activation: None, Method: Plate incorporation) of the same compound?
A: inactive; negative

Q: And the mutagenic call (Test System: E. coli, Strain/Indicator: WP2 uvrA (pKM101), Metabolic Activation: Rat, Liver, S-9, Method: Plate incorporation)?
A: inactive; negative

Q: How did the mutagenic call [1] turn out when `O=c1[nH]c(=O)n([C@H]2C[C@H](O)[C@@H](CO)O2)cc1Br` was run?
A: inactive; negative

Q: And the mutagenic call (Test System: AMES SALMONELLA TYPHIMURIUM, Strain/Indicator: TA98, Metabolic Activation: S-9, Method: STANDARD PLATE)?
A: inactive; negative

Q: And the mutagenic call [2]?
A: inactive; negative

Q: What about the mutagenic call (Test System: AMES SALMONELLA TYPHIMURIUM, Strain/Indicator: TA100, Metabolic Activation: S-9, Method: STANDARD PLATE) of the same compound?
A: inactive; negative

Q: What about the mutagenic call (Test System: AMES SALMONELLA TYPHIMURIUM, Strain/Indicator: TA1537, Metabolic Activation: S-9, Method: STANDARD PLATE) of the same compound?
A: inactive; negative

Q: What about the mutagenic call (Test System: CHINESE HAMSTER V-79, Strain/Indicator: V-79/6-THIOGUANINE, Metabolic Activation: NONE, Method: STANDARD PLATE) of the same compound?
A: active; positive

Q: What about the mutagenic call (Test System: CHINESE HAMSTER V-79, Strain/Indicator: V-79/8-AZAGUANINE, Metabolic Activation: NONE, Method: STANDARD PLATE) of the same compound?
A: active; positive

Q: What about the mutagenic call (Test System: E. COLI, Strain/Indicator: WP2 (HCR), Metabolic Activation: NONE, Method: STANDARD PLATE) of the same compound?
A: inactive; negative

Q: And the mutagenic call (Test System: E. COLI, Strain/Indicator: WP2 (HCR), Metabolic Activation: S-9, Method: STANDARD PLATE)?
A: inactive; negative

Q: Which results are given for `COc1nncc2ccccc12`?
A: mutagenic call [3]: inactive; negative; mutagenic call (Test System: AMES SALMONELLA TYPHIMURIUM, Strain/Indicator: TA98, Metabolic Activation: RAT, LIVER, S-9, PCB, Method: PREINCUBATION): inactive; negative; mutagenic call [4]: inactive; negative; mutagenic call (Test System: AMES SALMONELLA TYPHIMURIUM, Strain/Indicator: TA100, Metabolic Activation: RAT, LIVER, S-9, PCB, Method: PREINCUBATION): inactive; negative

Q: How did the mutagenic call [3] turn out when `CCCCCCCCCCO` was run?
A: inactive; negative

Q: And the mutagenic call (Test System: AMES SALMONELLA TYPHIMURIUM, Strain/Indicator: TA98, Metabolic Activation: RAT, LIVER, S-9, PHENOBARBITAL AND BETA-NAPHTHOFLAVONE, Method: PREINCUBATION)?
A: inactive; negative

Q: What about the mutagenic call [4] of the same compound?
A: inactive; negative

Q: What about the mutagenic call (Test System: AMES SALMONELLA TYPHIMURIUM, Strain/Indicator: TA100, Metabolic Activation: RAT, LIVER, S-9, PHENOBARBITAL AND BETA-NAPHTHOFLAVONE, Method: PREINCUBATION) of the same compound?
A: inactive; negative

Q: What about the mutagenic call (Test System: AMES SALMONELLA TYPHIMURIUM, Strain/Indicator: TA102, Metabolic Activation: NONE, Method: PREINCUBATION) of the same compound?
A: inactive; negative

Q: And the mutagenic call (Test System: AMES SALMONELLA TYPHIMURIUM, Strain/Indicator: TA102, Metabolic Activation: RAT, LIVER, S-9, SODIUM PHENOBARBITAL AND 5,6-BENZOFLAVONE, Method: PREINCUBATION)?
A: inactive; negative

Q: And the mutagenic call (Test System: AMES SALMONELLA TYPHIMURIUM, Strain/Indicator: TA104, Metabolic Activation: NONE, Method: PREINCUBATION)?
A: inactive; negative

Q: What about the mutagenic call (Test System: AMES SALMONELLA TYPHIMURIUM, Strain/Indicator: TA104, Metabolic Activation: RAT, LIVER, S-9, SODIUM PHENOBARBITAL AND 5,6-BENZOFLAVONE, Method: PREINCUBATION) of the same compound?
A: inactive; negative

Q: What about the mutagenic call (Test System: AMES SALMONELLA TYPHIMURIUM, Strain/Indicator: TA1535, Metabolic Activation: NONE, Method: PREINCUBATION) of the same compound?
A: inactive; negative

Q: What about the mutagenic call (Test System: AMES SALMONELLA TYPHIMURIUM, Strain/Indicator: TA1535, Metabolic Activation: RAT, LIVER, S-9, PHENOBARBITAL AND BETA-NAPHTHOFLAVONE, Method: PREINCUBATION) of the same compound?
A: inactive; negative

Q: What about the mutagenic call (Test System: AMES SALMONELLA TYPHIMURIUM, Strain/Indicator: TA1537, Metabolic Activation: NONE, Method: PREINCUBATION) of the same compound?
A: inactive; negative

Q: And the mutagenic call (Test System: AMES SALMONELLA TYPHIMURIUM, Strain/Indicator: TA1537, Metabolic Activation: RAT, LIVER, S-9, PHENOBARBITAL AND BETA-NAPHTHOFLAVONE, Method: PREINCUBATION)?
A: inactive; negative

Q: What about the mutagenic call (Test System: CHINESE HAMSTER V-79, Strain/Indicator: V-79 (HPRT)/6-THIOGUANINE, Metabolic Activation: NONE, Method: STANDARD PLATE) of the same compound?
A: inactive; negative

Q: What about the mutagenic call (Test System: CHINESE HAMSTER V-79, Strain/Indicator: V-79 (HPRT)/6-THIOGUANINE, Metabolic Activation: RAT LIVER S-9, Method: STANDARD PLATE) of the same compound?
A: inactive; negative

Q: What about the mutagenic call (Test System: E. COLI, Strain/Indicator: WP2UVRA/PKM101, Metabolic Activation: NONE, Method: PREINCUBATION) of the same compound?
A: inactive; negative

Q: And the mutagenic call (Test System: E. COLI, Strain/Indicator: WP2UVRA/PKM101, Metabolic Activation: RAT, LIVER, S-9, PHENOBARBITAL AND BETA-NAPHTHOFLAVONE, Method: PREINCUBATION)?
A: inactive; negative

Q: What about the mutagenic call (Test System: E. COLI, Strain/Indicator: WP2UVRA, Metabolic Activation: NONE, Method: PREINCUBATION) of the same compound?
A: inactive; negative

Q: What about the mutagenic call (Test System: E. COLI, Strain/Indicator: WP2UVRA, Metabolic Activation: RAT, LIVER, S-9, PHENOBARBITAL AND BETA-NAPHTHOFLAVONE, Method: PREINCUBATION) of the same compound?
A: inactive; negative

Q: How did the mutagenic call [2] turn out when `CC(=O)ON(OC(C)C)C(=O)c1ccccc1` was run?
A: active; positive

Q: What about the mutagenic call (Test System: AMES SALMONELLA TYPHIMURIUM, Strain/Indicator: TA100, Metabolic Activation: RAT, S-9, AROCLOR, Method: STANDARD PLATE) of the same compound?
A: active; positive

Q: With `O=CN(O)c1ccc(Cl)c(Cl)c1` as the compound, how does the mutagenic call (Test System: AMES SALMONELLA TYPHIMURIUM, Strain/Indicator: TA97, Metabolic Activation: NONE, Method: STANDARD PLATE) read?
A: inactive; negative

Q: And the mutagenic call (Test System: AMES SALMONELLA TYPHIMURIUM, Strain/Indicator: TA97, Metabolic Activation: RAT, LIVER, S-9, AROCLOR 1254, Method: STANDARD PLATE)?
A: inactive; negative

Q: What about the mutagenic call [1] of the same compound?
A: inactive; negative

Q: What about the mutagenic call (Test System: AMES SALMONELLA TYPHIMURIUM, Strain/Indicator: TA98, Metabolic Activation: RAT, LIVER, S-9, AROCLOR 1254, Method: STANDARD PLATE) of the same compound?
A: inactive; negative

Q: And the mutagenic call [2]?
A: inactive; negative

Q: What about the mutagenic call (Test System: AMES SALMONELLA TYPHIMURIUM, Strain/Indicator: TA100, Metabolic Activation: RAT, LIVER, S-9, AROCLOR 1254, Method: STANDARD PLATE) of the same compound?
A: inactive; negative

Q: And the mutagenic call (Test System: AMES SALMONELLA TYPHIMURIUM, Strain/Indicator: TA104, Metabolic Activation: NONE, Method: STANDARD PLATE)?
A: inactive; negative

Q: And the mutagenic call (Test System: AMES SALMONELLA TYPHIMURIUM, Strain/Indicator: TA104, Metabolic Activation: RAT, LIVER, S-9, AROCLOR 1254, Method: STANDARD PLATE)?
A: inactive; negative

Q: How did the mutagenic call [1] turn out when `Clc1ccc2c(c1)oc1ccccc12` was run?
A: active; positive

Q: And the mutagenic call (Test System: AMES SALMONELLA TYPHIMURIUM, Strain/Indicator: TA98, Metabolic Activation: RAT, LIVER, S-9, PHENOBARBITAL AND NAPHTHOFLAVONE, Method: STANDARD PLATE)?
A: active; positive

Q: What about the mutagenic call [2] of the same compound?
A: active; positive

Q: What about the mutagenic call (Test System: AMES SALMONELLA TYPHIMURIUM, Strain/Indicator: TA100, Metabolic Activation: RAT, LIVER, S-9, PHENOBARBITAL AND NAPHTHOFLAVONE, Method: STANDARD PLATE) of the same compound?
A: active; positive
